According to patent US20260137706A1, “METHODS OF TREATING INFLAMMATORY DISEASES” (INTERLINE THERAPEUTICS, INC., priority 2023, published 2026):

How the values were obtained:
[1] = target: T1, GST-RIPK2 fusion protein (human RIPK2, amino acids 1-310) (Homo sapiens, UniProt O43353); assay: RIPK2 binding competition assay (TR-FRET, Tracer 199 displacement); settings: 10 nM Tracer 199, 1 nM GST-RIPK2, read-out: RIPK2 IC50
T1 construct: made in house; host or cells: baculovirus infected Sf9 cells
Excerpt: The ability of selected compounds of Formula (I) to inhibit the binding of an Alexa647-labelled ATP-competitive kinase inhibitor to a GST-RIPK2 fusion protein was quantified employing the TR-FRET-based RIPK2 binding competition assay as described in the following paragraphs.
Recombinant fusion protein of N-terminal Glutathione-S-Transferase (GST) and a fragment of human RIPK2 (amino acids 1-310 of accession number 043353), expressed in baculovirus infected Sf9 cells, purified via glutathione affinity chromatography, was used as GST-RIPK2 fusion protein. Tracer 199 from Life Technologies (catalogue no. PR9115B) was used as Alexa647-labelled ATP-competitive kinase inhibitor.
For the assay, 50 nL of a 100-fold concentrated solution of each test compound in DMSO was pipetted into either a black low volume 384-well microtiter plate or a black 1536-well microtiter plate (both Greiner Bio-One, Frickenhausen, Germany), 3 μL solution of Tracer 199 (16.7 nM=>final concentration in 5 μL assay volume is 10 nM) in aqueous assay buffer (25 mM Tris/HCl pH 7.5, 10 mM magnesium chloride (MgCl2), 5 mM β-glycerophosphate, 2.5 mM dithiothreitol (DTT), 0.5 mM ethylene glycol-bis(2-aminoethylether)-N,N,N′,N′-tetraacetic acid (EGTA), 0.5 mM sodium ortho-vanadate, 0.01% (w/v) bovine serum albumin (BSA), 0.005% (w/v) Pluronic F-127 (Sigma)) were added. Then the binding competition was started by the addition of 2 μL of a solution of the GST-RIPK2 fusion protein (2.5 nM=>final conc. in the 5 μL assay volume is 1 nM) and of Anti-GST-Tb (1.25 nM=>final conc. in the 5 μL assay volume is 0.5 nM), a Lumi4®—Tb cryptate-conjugated anti-GST antibody from PerkinElmer (catalogue no 61GSTTAH), in assay buffer.
The resulting mixture was incubated 45 min at 22° C. to allow the formation of a complex between the Tracer 199, the fusion protein and Anti-GST-Tb. Subsequently, the amount of this complex was evaluated by measurement of the resonance energy transfer from the Tb-cryptate to the Tracer 199. Therefore, the fluorescence emissions at 620 nm and 665 nm after excitation at 337 nm were measured in a TR-FRET reader, e.g. a Pherastar FS (BMG Labtechnologies, Offenburg, Germany) or a Viewlux (PerkinElmer). The ratio of the emissions at 665 nm and at 620 nm was taken as the measure of the amount of the complex. The data were normalized (assay reaction without inhibitor=0% activity, all other assay components but no GST-RIPK2 fusion protein=−100% activity).
Table A1 below lists IC50 values of selected compounds of Formula (I) measured in the RIPK2 binding competition assay.

[2] = target: T2, binding of His-XIAP(BIR2)-avi fusion protein to GST-RIPK2 fusion protein (RIPK2/XIAP) (Homo sapiens, UniProt O43353); assay: RIPK2-XIAP binding competition PPI assay (TR-FRET); settings: RIPK2/XIAP binding competition PPI assay; for Emax: Amax, read-out: PPI Amax bin; for IC50: read-out: PPI IC50 bin
T2 construct: made in house; host or cells: baculovirus infected Sf9 cells
T2 sequence (O43353 1-310 limits assumed): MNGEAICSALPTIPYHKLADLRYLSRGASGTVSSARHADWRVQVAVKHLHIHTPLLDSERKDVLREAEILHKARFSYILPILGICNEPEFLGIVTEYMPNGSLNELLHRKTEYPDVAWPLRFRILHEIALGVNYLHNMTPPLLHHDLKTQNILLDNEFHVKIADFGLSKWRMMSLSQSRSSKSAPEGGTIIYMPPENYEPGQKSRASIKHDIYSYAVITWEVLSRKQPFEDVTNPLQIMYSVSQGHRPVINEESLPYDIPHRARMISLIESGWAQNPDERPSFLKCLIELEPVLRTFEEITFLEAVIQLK
How it was run: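 Compounds (in DMSO, 100-fold stock) incubated 120 min at 23 °C with 1 nM GST-RIPK2 (aa 1-310) and 25 nM His-XIAP(BIR2 aa 152-231)-avi, plus anti-His-XL665 and anti-GST-Tb, in pH 7.5 Tris buffer. Read-out: 665/520 nm emission ratio. Normalized to no-inhibitor (0%) and 50 nM GSK583 (−100%); Amax binned A–D.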

[3] = tested on: NF-κB pathway (SEAP) in THP1-Dual cells; assay: THP-1 Dual cell SEAP assay (L18-MDP stimulated); type: cell-based; settings: Homo sapiens, THP1-Dual, read-out: NF-κB THP1 IC50 bin
How it was run: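 THP1-Dual cells (~25,000/well) were preincubated 30 min with serially diluted compounds, then stimulated with 10 ng/mL L18-MDP (final) for 20-24 h at 37 °C. Supernatant SEAP was read with QUANTI-Blue at OD 620-655 nm after 2 h. IC50 came from non-linear fits of % inhibition versus DMSO/L18-MDP controls after media-blank subtraction.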

T1 sequence (O43353 1-310): as the sequence (O43353 1-310 limits assumed) above

| Structure (SMILES) | IC50 [1] [nM] | Emax [2] [%] | IC50 [2] [nM] | IC50 [3] [nM] |
| --- | --- | --- | --- | --- |
| CC(CO)COc1cc2ncc(-c3cc(F)c(N)nc3F)n2cc1S(=O)(=O)C(C)(C)C (racemic) [Example 174, 3-((3-(6-amino-2,5-difluoropyridin-3-yl)-6-(tert-butylsulfonyl)imidazo[1,2-a]pyridin-7-yl)oxy)-2-methylpropan-1-ol] | 1 to 2.5 | > 80 | 1 to 2.5 | 50 to 250 |
| CC(C)(C)S(=O)(=O)c1cc2c(-c3cc(F)c(N)nc3F)cnn2cc1OCCO [Example 14, 2-((3-(6-amino-2,5-difluoropyridin-3-yl)-5-(tert-butylsulfonyl)pyrazolo[1,5-a]pyridin-6-yl)oxy)ethan-1-ol] | 1 to 2.5 | > 80 | 1 to 2.5 | 50 to 250 |
| COc1cc2ncc(-c3cc(F)c(OC)c(NS(=O)(=O)c4cnn(CCO)c4)c3)n2cc1C(F)(F)F [Example 304, N-(3-fluoro-2-methoxy-5-(7-methoxy-6-(trifluoromethyl)imidazo[1,2-a]pyridin-3-yl)phenyl)-1-(2-hydroxyethyl)-1H-pyrazole-4-sulfonamide] | 2.5 to 20 | > 80 | 2.5 to 20 | > 1000 |
| CCC(C)(C)S(=O)(=O)c1cn2c(-c3cc(F)c(N)nc3F)cnc2cc1OC [Example 69, 3,6-difluoro-5-(7-methoxy-6-(tert-pentylsulfonyl)imidazo[1,2-a]pyridin-3-yl)pyridin-2-amine] | 2.5 to 20 | > 80 | 2.5 to 20 | 250 to 1000 |
| CC(C)(C)S(=O)(=O)c1cn2c(-c3cc(F)c(N)nc3F)cnc2cc1OCC1(O)CC1 [Example 177, 1-(((3-(6-amino-2,5-difluoropyridin-3-yl)-6-(tert-butylsulfonyl)imidazo[1,2-a]pyridin-7-yl)oxy)methyl)cyclopropan-1-ol] | 1 to 2.5 | > 80 | 2.5 to 20 | 50 to 250 |
| COc1c(F)cc(-c2cnc3cc(OC[C@@H](C)O)c(S(=O)(=O)C(C)(C)C)cn23)cc1NS(C)(=O)=O [Example 255, (R)-N-(5-(6-(tert-butylsulfonyl)-7-(2-hydroxypropoxy)imidazo [1,2-a]pyridin-3-yl)-3-fluoro-2-methoxyphenyl) methanesulfonamide] | 1 to 2.5 | 55 to 80 | < 1 | 50 to 250 |
| CC(C)(C)S(=O)(=O)c1cn2c(-c3cc(F)c(N)nc3F)cnc2cc1-c1cc[nH]n1 [Example 37, 5-(6-(tert-butylsulfonyl)-7-(1H-pyrazol-3-yl)imidazo[1,2-a]pyridin-3-yl)-3,6-difluoropyridin-2-amine] | > 20 | > 80 | > 20 | > 1000 |
| CC(C)(C)S(=O)(=O)c1cn2c(-c3cc(F)c(N)nc3F)cnc2cc1C(=O)NCCO [Example 44, 3-(6-amino-2,5-difluoropyridin-3-yl)-6-(tert-butylsulfonyl)-N-(2-hydroxyethyl)imidazo[1,2-a]pyridine-7-carboxamide] | > 20 | > 80 | > 20 | > 1000 |
| C[C@@H](O)COc1cc2ncc(-c3cc(F)c(N)nc3F)n2cc1S(=O)(=O)C(C)(C)C [Example 171, (R)-1-((3-(6-amino-2,5-difluoropyridin-3-yl)-6-(tert-butylsulfonyl)imidazo[1,2-a]pyridin-7-yl)oxy)propan-2-ol] | 2.5 to 20 | > 80 | 2.5 to 20 | 50 to 250 |
| C[C@H](O)COc1cc2ncc(-c3cc(F)c(N)nc3F)n2cc1S(=O)(=O)C(C)(C)C [Example 170, (S)-1-((3-(6-amino-2,5-difluoropyridin-3-yl)-6-(tert-butylsulfonyl)imidazo[1,2-a]pyridin-7-yl)oxy)propan-2-ol] | 1 to 2.5 | > 80 | 1 to 2.5 | 50 to 250 |
| CC(C)(C)S(=O)(=O)c1cn2c(-c3cc(F)c(N)nc3F)cnc2cc1OCC(F)CO (stereo not shown) [Example 203, 3-((3-(6-amino-2,5-difluoropyridin-3-yl)-6-(tert-butylsulfonyl)imidazo [1,2-a]pyridin-7-yl)oxy)-2-fluoropropan-1-ol] | 1 to 2.5 | > 80 | 1 to 2.5 | 50 to 250 |
| COC(=O)Nc1ccc(-c2cnc3cc(OC)c(S(=O)(=O)C(C)(C)C)cn23)cn1 [Example 9, methyl (5-(6-(tert-butylsulfonyl)-7-methoxyimidazo[1,2-a]pyridin-3-yl)pyridin-2-yl)carbamate] | > 20 | < 30 | > 20 | > 1000 |
| COc1cc2ncc(-c3ccc4cncn4c3)n2cc1S(=O)(=O)C(C)(C)C [Example 113, 6-(tert-butylsulfonyl)-3-(imidazo[1,5-a]pyridin-6-yl)-7-methoxyimidazo[1,2-a]pyridine] | > 20 | < 30 | > 20 | > 1000 |
| COc1c(F)cc(-c2cnc3cc(OC[C@H](C)CO)c(S(=O)(=O)C(C)(C)C)cn23)cc1NS(C)(=O)=O [Example 183, (R)-N-(5-(6-(tert-butylsulfonyl)-7-(3-hydroxy-2-methylpropoxy)imidazo[1,2-a]pyridin-3-yl)-3-fluoro-2-methoxyphenyl)methanesulfonamide] | < 1 | 55 to 80 | < 1 | < 50 |
| CC(C)(C)S(=O)(=O)c1cn2c(-c3ccc4[nH]cnc4c3)cnc2cc1OCCO [Example 207, 2-((3-(1H-benzo[d]imidazol-5-yl)-6-(tert-butylsulfonyl)imidazo [1,2-a]pyridin-7-yl)oxy)ethan-1-ol] | 2.5 to 20 | < 30 | > 20 | > 1000 |
| CCS(=O)(=O)Nc1cc(-c2cnc3cc(OCCO)c(S(=O)(=O)C(C)(C)C)cn23)cc(F)c1OC [Example 224, N-(5-(6-(tert-butylsulfonyl)-7-(2-hydroxyethoxy)imidazo [1,2-a]pyridin-3-yl)-3-fluoro-2-methoxyphenyl) ethanesulfonamide] | < 1 | > 80 | < 1 | < 50 |
| COc1cc2ncc(-c3cc(F)c(N)nc3F)n2cc1S(=O)(=O)N1CCOCC1 [Example 163, 3,6-difluoro-5-(7-methoxy-6-(morpholinosulfonyl)imidazo[1,2-a]pyridin-3-yl)pyridin-2-amine] | > 20 | > 80 | > 20 | > 1000 |
| COc1cc2ncc(-c3cccc(NS(=O)(=O)C4CCN(C(=O)OC(C)(C)C)CC4)c3)n2cc1S(=O)(=O)C(C)(C)C [Example 157, tert-butyl 4-(N-(3-(6-(tert-butylsulfonyl)-7-methoxyimidazo[1,2-a]pyridin-3-yl)phenyl)sulfamoyl)piperidine-1-carboxylate] | > 20 | 55 to 80 | > 20 | > 1000 |
| COc1cc2ncc(-c3cc(F)c(N)nc3F)n2cc1S(=O)(=O)C(C)(C)CN1CCOCC1 [Example 168, 3,6-difluoro-5-(7-methoxy-6-((2-methyl-1-morpholinopropan-2-yl)sulfonyl)imidazo[1,2-a]pyridin-3-yl)pyridin-2-amine] | 2.5 to 20 | > 80 | 2.5 to 20 | 250 to 1000 |
